Results as given in PMC11822212, “High-throughput screening identifies Aurora kinase B as a critical therapeutic target for Merkel cell carcinoma” (Nature Communications, 2025).
Where a name gives a salt, the structure may show the parent alone.

Tests used:
[1] = test system: VN-MCC cell lines (MCC13, MCC26, UISO); experiment: qHTS cell viability, VN-MCC cell lines as a group (mean AUC, VN.MCC.avg); type: cell-based, human; details: for VN-MCC_Avg_AUC: mean AUC of VN-MCC cell lines
NIH-3T3 cells = experiment: qHTS cell viability (CellTiter-Glo, 72 h; primary screen), control cell line; type: cell-based, mouse
MCC26 cells (VN-MCC) = experiment: qHTS cell viability (CellTiter-Glo, 72 h; primary and follow-up small molecule screen); type: cell-based, human
MCC13 cells (VN-MCC) = experiment: as above; type: cell-based, human
UISO cells (VN-MCC) = experiment: as above; type: cell-based, human
WAGA cells (VP-MCC) = experiment: as above; type: cell-based, human
[2] = test system: six MCC cell lines and four control cell lines; experiment: qHTS cell viability, all 10 cell lines screened; type: cell-based
[3] = test system: VP-MCC cell lines (WAGA, MKL-1, MKL-2); experiment: qHTS cell viability, VP-MCC cell lines as a group (mean AUC, VP.MCC.avg); type: cell-based, human; details: for VP-MCC_Avg_AUC: mean AUC of VP-MCC cell lines
HACAT cells = experiment: qHTS cell viability (CellTiter-Glo, 72 h; primary screen), control cell line; type: cell-based, human
CRL-7250 cells = experiment: as above; type: cell-based
MKL-2 cells (VP-MCC) = experiment: qHTS cell viability (CellTiter-Glo, 72 h; primary and follow-up small molecule screen); type: cell-based, human
MKL-1 cells (VP-MCC) = experiment: as above; type: cell-based, human
[4] = test system: MCC cell lines (WAGA, MKL-1, MKL-2, MCC13, MCC26, UISO); experiment: qHTS cell viability, all six MCC cell lines as a group (mean AUC, MCC.avg); type: cell-based, human; details: mean AUC of six MCC cell lines
[5] = test system: control cell lines (HACAT, HEK293T, CRL-7250, NIH-3T3); experiment: qHTS cell viability, control cell lines as a group (mean AUC, Control.avg); type: cell-based; details: mean AUC of control cell lines
HEK293T cells = experiment: qHTS cell viability (CellTiter-Glo, 72 h; primary screen), control cell line; type: cell-based, human
[6] = NPC library, therapeutic window: Control avg AUC minus VN-MCC avg AUC
[7] = NPC library, qHTS dose-response AUC, NIH3T3 control
[8] = NPC library, qHTS dose-response AUC, MCC26
[9] = NPC library, qHTS dose-response AUC, MCC13
[10] = NPC library, qHTS dose-response AUC, UISO
[11] = NPC library, qHTS dose-response AUC, WAGA
[12] = NPC library, therapeutic window: Control avg AUC minus MCC avg AUC
[13] = NPC library, therapeutic window: Control avg AUC minus VP-MCC avg AUC
[14] = NPC library, qHTS dose-response AUC, HACAT control
[15] = NPC library, qHTS dose-response AUC, CRL7250 control
[16] = NPC library, qHTS dose-response AUC, MKL2
[17] = NPC library, qHTS dose-response AUC, MKL1
[18] = NPC library, qHTS dose-response AUC, HEK293T control
[19] = MIPE library, 11-point DRC, control cell line, sheet S2E
[20] = MIPE library, 11-point DRC, sheet S2E

SMILES: O=C(CCCCCCCCC#CI)Oc1ccccc1 [Phenyl 11-iodo-10-undecynoate]
- VN-MCC_Avg_AUC ([1]; NPC library): 450.746
- Control-VN-MCC [1, 6]: 36.2708
- NIH3T3_AUC (NIH-3T3 cells; [7]): 495.803
- MCC26_AUC (MCC26 cells (VN-MCC); [8]): 443.917
- MCC13_AUC (MCC13 cells (VN-MCC); [9]): 470.776
- UISO_AUC (UISO cells (VN-MCC); [10]): 437.546
- WAGA_AUC (WAGA cells (VP-MCC); [11]): 406.191
- Control-MCC [2, 12]: 58.9016
- VP-MCC_Avg_AUC ([3]; NPC library): 405.485
- Control-VP-MCC [3, 13]: 81.5325
- HACAT_AUC (HACAT cells; [14]): 489.285
- CRL7250_AUC (CRL-7250 cells; [15]): 487.776
- MKL2_AUC (MKL-2 cells (VP-MCC); [16]): 402.29
- MKL1_AUC (MKL-1 cells (VP-MCC); [17]): 407.973
- MCC_Avg_AUC ([4]; NPC library): 428.115
- Control_Avg_AUC ([5]; NPC library): 487.017
- HEK293T_AUC (HEK293T cells; [18]): 475.205

SMILES: O=C(CCc1ccc(O)cc1)c1c(O)cc(O)cc1O [Phloretin]
- Control-VN-MCC ([1]; MIPE library, Control AUC minus VN-MCC AUC (therapeutic window), sheet S2E): -6.696
- VN-MCC_Avg_AUC ([1]; MIPE library, sheet S2E): 476.56
- NIH3T3_AUC (NIH-3T3 cells; [19]): 475.685
- NIH3T3_AUC (NIH-3T3 cells; area under the dose-response curve, NIH3T3 control cells, AUC<450 = reduced viability): 475.685
- MCC26_AUC (MCC26 cells (VN-MCC); [20]): 472.357
- MCC26_AUC (MCC26 cells (VN-MCC); area under the dose-response curve, MCC26 cells, AUC<450 = reduced viability): 472.357
- Area under the dose-response curve (AUC) MCC26 Replicate 1 (MCC26 cells (VN-MCC); follow-up screen, MCC26, replicate 1): 472.4
- Area under the dose-response curve (AUC) MCC26 Replicate 2 (MCC26 cells (VN-MCC); follow-up screen, MCC26, replicate 2): 446.6
- Area under the dose-response curve (AUC) MCC26 Replicate 3 (MCC26 cells (VN-MCC); follow-up screen, MCC26, replicate 3): 497.7
- MCC13_AUC (MCC13 cells (VN-MCC); [20]): 472.315
- MCC13_AUC (MCC13 cells (VN-MCC); area under the dose-response curve, MCC13 cells, AUC<450 = reduced viability): 472.315
- Area under the dose-response curve (AUC) MCC13 Replicate 1 (MCC13 cells (VN-MCC); follow-up screen, MCC13, replicate 1): 534.6
- Area under the dose-response curve (AUC) MCC13 Replicate 2 (MCC13 cells (VN-MCC); follow-up screen, MCC13, replicate 2): 495.7
- Area under the dose-response curve (AUC) MCC13 Replicate 3 (MCC13 cells (VN-MCC); follow-up screen, MCC13, replicate 3): 492.0
- UISO_AUC (UISO cells (VN-MCC); [20]): 485.008
- UISO_AUC (UISO cells (VN-MCC); area under the dose-response curve, UISO cells, AUC<450 = reduced viability): 485.008
- Area under the dose-response curve (AUC) UISO Replicate 1 (UISO cells (VN-MCC); follow-up screen, UISO, replicate 1): 542.5
- Area under the dose-response curve (AUC) UISO Replicate 2 (UISO cells (VN-MCC); follow-up screen, UISO, replicate 2): 515.8
- Area under the dose-response curve (AUC) UISO Replicate 3 (UISO cells (VN-MCC); follow-up screen, UISO, replicate 3): 481.4
- WAGA_AUC (WAGA cells (VP-MCC); [20]): 402.295
- WAGA_AUC (WAGA cells (VP-MCC); area under the dose-response curve, WAGA cells, AUC<450 = reduced viability): 402.295
- Area under the dose-response curve (AUC) WAGA Replicate 1 (WAGA cells (VP-MCC); follow-up screen, WAGA, replicate 1): 571.8
- Area under the dose-response curve (AUC) WAGA Replicate 2 (WAGA cells (VP-MCC); follow-up screen, WAGA, replicate 2): 490.2
- Area under the dose-response curve (AUC) WAGA Replicate 3 (WAGA cells (VP-MCC); follow-up screen, WAGA, replicate 3): 485.7
- Control-MCC ([2]; MIPE library, Control AUC minus MCC AUC (therapeutic window), sheet S2E): 23.8842
- Control-VP-MCC ([3]; MIPE library, Control AUC minus VP-MCC AUC (therapeutic window), sheet S2E): 54.4642
- VP-MCC_Avg_AUC ([3]; MIPE library, sheet S2E): 415.4
- HACAT_AUC (HACAT cells; [19]): 476.785
- HACAT_AUC (HACAT cells; area under the dose-response curve, HACAT control cells, AUC<450 = reduced viability): 476.785
- CRL7250_AUC (CRL-7250 cells; [19]): 456.981
- CRL7250_AUC (CRL-7250 cells; area under the dose-response curve, CRL7250 control cells, AUC<450 = reduced viability): 456.981
- MKL2_AUC (MKL-2 cells (VP-MCC); [20]): 410.273
- MKL2_AUC (MKL-2 cells (VP-MCC); area under the dose-response curve, MKL-2 cells, AUC<450 = reduced viability): 410.273
- Area under the dose-response curve (AUC) MKL-2 Replicate 1 (MKL-2 cells (VP-MCC); follow-up screen, MKL-2, replicate 1): 493.4
- Area under the dose-response curve (AUC) MKL-2 Replicate 2 (MKL-2 cells (VP-MCC); follow-up screen, MKL-2, replicate 2): 509.3
- Area under the dose-response curve (AUC) MKL-2 Replicate 3 (MKL-2 cells (VP-MCC); follow-up screen, MKL-2, replicate 3): 493.0
- MKL1_AUC (MKL-1 cells (VP-MCC); [20]): 433.632
- MKL1_AUC (MKL-1 cells (VP-MCC); area under the dose-response curve, MKL-1 cells, AUC<450 = reduced viability): 433.632
- Area under the dose-response curve (AUC) MKL-1 Replicate 1 (MKL-1 cells (VP-MCC); follow-up screen, MKL-1, replicate 1): 526.8
- Area under the dose-response curve (AUC) MKL-1 Replicate 2 (MKL-1 cells (VP-MCC); follow-up screen, MKL-1, replicate 2): 492.2
- Area under the dose-response curve (AUC) MKL-1 Replicate 3 (MKL-1 cells (VP-MCC); follow-up screen, MKL-1, replicate 3): 497.0
- MCC_Avg_AUC ([4]; MIPE library, sheet S2E): 445.98
- Control_Avg_AUC ([5]; MIPE library, sheet S2E): 469.864
- HEK293T_AUC (HEK293T cells; [19]): 470.007
- HEK293T_AUC (HEK293T cells; area under the dose-response curve, HEK293T control cells, AUC<450 = reduced viability): 470.007

SMILES: O=C1OC(CCN2CCCCC2)OC1(c1ccccc1)c1ccccc1 (stereo not shown) [Pipoxolan hydrochloride]
- VN-MCC_Avg_AUC ([1]; NPC library): 450.651
- Control-VN-MCC [1, 6]: 22.7364
- NIH3T3_AUC (NIH-3T3 cells; [7]): 468.074
- MCC26_AUC (MCC26 cells (VN-MCC); [8]): 460.749
- MCC13_AUC (MCC13 cells (VN-MCC); [9]): 478.552
- UISO_AUC (UISO cells (VN-MCC); [10]): 412.652
- WAGA_AUC (WAGA cells (VP-MCC); [11]): 433.006
- Control-MCC [2, 12]: 37.5609
- VP-MCC_Avg_AUC ([3]; NPC library): 421.002
- Control-VP-MCC [3, 13]: 52.3854
- HACAT_AUC (HACAT cells; [14]): 493.052
- CRL7250_AUC (CRL-7250 cells; [15]): 487.056
- MKL2_AUC (MKL-2 cells (VP-MCC); [16]): 392.534
- MKL1_AUC (MKL-1 cells (VP-MCC); [17]): 437.466
- MCC_Avg_AUC ([4]; NPC library): 435.827
- Control_Avg_AUC ([5]; NPC library): 473.388
- HEK293T_AUC (HEK293T cells; [18]): 445.369
